The record followed here is patent US6887997B2, “9H-imidazo[1,2-a]purin-9-one compounds” (Yung Shin Pharmaceutical Ind. Co., Ltd., priority 2001, dated 2005).

The term melting point denotes the temperature, or range, at which the solid turns liquid.

The compound `O=c1c2ncn(COCCO)c2nc2[nH]c(-c3ccc(Cl)s3)cn12` [compound 2, 3-(2-Hydroxy-ethoxymethyl)-6-(5-chloro-thiophen-2-yl)-3,5-dihydro-1,3,4,5,7a-pentaaza-s-indacen-8-one] came in with a melting point of 226 to 228 °C.
